Measured values taken from the NIST ThermoML archive (doi:10.1021/je800110r).
Numbers after ± are expanded uncertainties.

Details: Liquid, Vibrating tube method

CCCCCCCCCC [decane]
Details	mass density [kg/m3]
333.16 K, 13554 kPa	711.7 ± 2
333.16 K, 13566 kPa	711.8 ± 2
333.16 K, 13581 kPa	711.8 ± 2
333.16 K, 13900 kPa	711.9 ± 2
333.16 K, 14258 kPa	712.3 ± 2
333.16 K, 14275 kPa	712.3 ± 2
333.16 K, 14293 kPa	712.4 ± 2
333.16 K, 14310 kPa	712.3 ± 2
333.16 K, 14334 kPa	712.3 ± 2
333.16 K, 14348 kPa	712.4 ± 2
333.16 K, 14369 kPa	712.4 ± 2
333.16 K, 14389 kPa	712.4 ± 2
333.16 K, 14403 kPa	712.4 ± 2
333.16 K, 14421 kPa	712.5 ± 2
333.16 K, 14436 kPa	712.4 ± 2
333.16 K, 14457 kPa	712.6 ± 2
333.16 K, 14470 kPa	712.5 ± 2
333.16 K, 14484 kPa	712.6 ± 2
333.16 K, 14501 kPa	712.6 ± 2
333.16 K, 14514 kPa	712.5 ± 2
333.16 K, 14528 kPa	712.6 ± 2
333.16 K, 14543 kPa	712.4 ± 2
333.16 K, 14559 kPa	712.6 ± 2
333.16 K, 14581 kPa	712.6 ± 2
333.16 K, 14601 kPa	712.6 ± 2
333.16 K, 14623 kPa	712.6 ± 2
333.16 K, 14640 kPa	712.6 ± 2
333.16 K, 14660 kPa	712.7 ± 2
333.16 K, 14678 kPa	712.6 ± 2
333.16 K, 14696 kPa	712.7 ± 2
333.16 K, 14711 kPa	712.7 ± 2
333.16 K, 14728 kPa	712.8 ± 2
333.16 K, 14750 kPa	712.8 ± 2
333.16 K, 14770 kPa	712.8 ± 2
333.16 K, 14785 kPa	712.7 ± 2
333.16 K, 14808 kPa	712.8 ± 2
333.16 K, 14828 kPa	712.8 ± 2
333.16 K, 14846 kPa	712.8 ± 2
333.16 K, 14864 kPa	712.9 ± 2
333.16 K, 14881 kPa	712.7 ± 2
333.16 K, 14984 kPa	712.9 ± 2
333.16 K, 15187 kPa	713 ± 2
333.16 K, 15232 kPa	713.1 ± 2
333.16 K, 15248 kPa	713.1 ± 2
333.16 K, 15291 kPa	713.1 ± 2
333.16 K, 15313 kPa	713.2 ± 2
333.16 K, 15331 kPa	713.3 ± 2
333.16 K, 15356 kPa	713.2 ± 2
333.16 K, 15370 kPa	713.2 ± 2
333.16 K, 15519 kPa	713.4 ± 2
333.16 K, 15581 kPa	713.3 ± 2
333.16 K, 18702 kPa	716 ± 2
333.16 K, 18825 kPa	715.9 ± 2
333.16 K, 21785 kPa	718.5 ± 2
333.16 K, 21820 kPa	718.6 ± 2
333.16 K, 25349 kPa	721.2 ± 2.1
333.16 K, 25383 kPa	721.2 ± 2.1
333.16 K, 25434 kPa	721.3 ± 2.1
333.16 K, 25480 kPa	721.3 ± 2.1
333.16 K, 25520 kPa	721.3 ± 2.1
333.16 K, 25560 kPa	721.3 ± 2.1
333.16 K, 25612 kPa	721.4 ± 2.1
333.16 K, 25653 kPa	721.5 ± 2.1
333.16 K, 26114 kPa	721.7 ± 2.1
333.16 K, 26176 kPa	721.8 ± 2.1
333.16 K, 26222 kPa	721.8 ± 2.1
333.16 K, 26260 kPa	721.9 ± 2.1
333.16 K, 26304 kPa	721.8 ± 2.1
333.16 K, 26342 kPa	721.9 ± 2.1
333.16 K, 27466 kPa	722.8 ± 2.1
333.16 K, 27509 kPa	722.8 ± 2.1
333.16 K, 27558 kPa	722.8 ± 2.1
333.16 K, 27603 kPa	722.9 ± 2.1
333.16 K, 27660 kPa	722.9 ± 2.1
333.16 K, 27703 kPa	722.9 ± 2.1
333.16 K, 27755 kPa	722.9 ± 2.1
333.16 K, 27812 kPa	723 ± 2.1
333.16 K, 27849 kPa	723.1 ± 2.1
333.16 K, 27894 kPa	723.1 ± 2.1
333.16 K, 27945 kPa	723 ± 2.1
333.16 K, 27985 kPa	723.2 ± 2.1
333.16 K, 28031 kPa	723.2 ± 2.1
333.16 K, 28077 kPa	723.1 ± 2.1
333.16 K, 28117 kPa	723.2 ± 2.1
333.16 K, 28185 kPa	723.3 ± 2.1
333.16 K, 28218 kPa	723.2 ± 2.1
333.16 K, 28262 kPa	723.3 ± 2.1
333.16 K, 28293 kPa	723.4 ± 2.1
333.16 K, 28324 kPa	723.5 ± 2.1
333.16 K, 28354 kPa	723.3 ± 2.1
333.16 K, 28395 kPa	723.5 ± 2.1
333.16 K, 28436 kPa	723.4 ± 2.1
333.16 K, 28472 kPa	723.5 ± 2.1
333.16 K, 28508 kPa	723.5 ± 2.1
333.16 K, 28555 kPa	723.6 ± 2.1
333.16 K, 28586 kPa	723.5 ± 2.1
333.16 K, 29016 kPa	723.9 ± 2.1
333.16 K, 29059 kPa	724 ± 2.1
333.16 K, 29107 kPa	724 ± 2.1
333.16 K, 29157 kPa	724.1 ± 2.1
333.16 K, 29189 kPa	724 ± 2.1
333.16 K, 29233 kPa	724 ± 2.1
333.16 K, 29260 kPa	724.2 ± 2.1
333.16 K, 29300 kPa	724.2 ± 2.1
333.16 K, 29339 kPa	724.2 ± 2.1
333.16 K, 29378 kPa	724.2 ± 2.1
333.16 K, 29411 kPa	724.2 ± 2.1
333.16 K, 29456 kPa	724.2 ± 2.1
333.16 K, 29495 kPa	724.1 ± 2.1
333.16 K, 29541 kPa	724.3 ± 2.1
333.16 K, 29575 kPa	724.4 ± 2.1
333.16 K, 29625 kPa	724.4 ± 2.1
333.16 K, 29666 kPa	724.3 ± 2.1
333.16 K, 29700 kPa	724.3 ± 2.1
333.16 K, 29730 kPa	724.6 ± 2.1
333.16 K, 29759 kPa	724.5 ± 2.1
333.16 K, 29794 kPa	724.6 ± 2.1
333.17 K, 25689 kPa	721.5 ± 2.1
333.17 K, 25730 kPa	721.5 ± 2.1
333.17 K, 25766 kPa	721.6 ± 2.1
333.17 K, 25801 kPa	721.5 ± 2.1
333.17 K, 25849 kPa	721.7 ± 2.1
333.17 K, 25908 kPa	721.7 ± 2.1
333.17 K, 25950 kPa	721.7 ± 2.1
333.17 K, 25992 kPa	721.7 ± 2.1
333.17 K, 26034 kPa	721.7 ± 2.1
333.17 K, 26071 kPa	721.8 ± 2.1
333.17 K, 28623 kPa	723.6 ± 2.1
333.17 K, 28670 kPa	723.7 ± 2.1
333.17 K, 28702 kPa	723.6 ± 2.1
333.17 K, 28729 kPa	723.8 ± 2.1
333.17 K, 28761 kPa	723.8 ± 2.1
333.17 K, 28807 kPa	723.7 ± 2.1
333.17 K, 28849 kPa	723.8 ± 2.1
333.17 K, 28887 kPa	723.7 ± 2.1
333.17 K, 28930 kPa	724 ± 2.1
333.17 K, 28974 kPa	723.9 ± 2.1
